Source: US20120149080A1, “YEAST PRODUCTION CULTURE FOR THE PRODUCTION OF BUTANOL” (Butamax(TM) Advanced Biofuels LLC, priority 2010, published 2012)

Columns and labels:
Format in all cases: cell-based
[1] = tested on: Saccharomyces cerevisiae BY4743; test: 24 hour survival (CFU) at low and high cell density
Method: Saccharomyces cerevisiae BY4743 (ATCC 201390) was plated from a freezer vial onto YPD agar (Teknova, Hollister, Calif.; Cat. #Y1000) and incubated overnight at 30° C. Cells from the YPD plate were inoculated into a 25 ml pre-culture of YPD broth (Teknova; Cat. #Y5000) with an initial OD600 of 0.06 to 0.08. The pre-culture was grown for 7 hours in an aerobic shaker at 30° C. An aliquot of the pre-culture was inoculated into 200 ml of YPD broth, with an initial OD600 of 0.06 to 0.08, and this culture was incubated with aeration at 30° C. for approximately 17 hours. The optical density of the culture was measured, the culture was centrifuged and the cells were resuspended to yield an OD600 of 5 in fresh YPD broth. This is referred to as a high cell density (HCD) culture. […] This is referred to as a low the cell density (LCD) culture. These cultures were incubated at 30° C. with shaking for 30 minutes for an acclimation period. At the end of the 30 minute acclimation period, the OD600 was measured. 5 ml of low or high cell density culture was dispensed to 15 ml conical tubes which contained different concentrations of the alcohol to be tested. A control tube included no alcohol. The tubes were placed in a rotary drum at 30° C. and incubated for 24 hours. The time of addition of cells was referred to as “time 0”. […] Colony forming units (CFUs) were determined on YPD plates at time 0 for the control and at 24 hours for each of the cultures, including the control culture, using standard microbiological methods. […] Colonies were counted after 48 hours, and CFUs/ml were calculated. At time 0, the low cell density cultures had about 4.8×10^5 CFUs/ml, and the high cell density cultures had about 5.4×10^7 CFUs/ml.

[2] = tested on: Saccharomyces cerevisiae PNY0602; test: Glucose consumption rate in high cell density culture in YPD; conditions: about 3.9 gdcw/L
Source text: (§1) S. cerevisiae strains used were PNY0569 CEN.PK122 (MATa MAL2-8c SUC2/MATalpha MAL2-8c SUC2) and PNY0571 (CEN.PK 113-7D MATa MAL2-8c SUC2), obtained from Centraalbureau voor Schimmelcultures, Fungal and Yeast Collection (Netherlands) as well as PNY0602 and PNY0614. PNY0602 and PNY0614 were isolated from a mutagenized culture of PNY0571. PNY0571 (CEN.PK 113-7D) was subjected to 10 rounds of chemical mutagenesis with N-methyl-N′-nitro-N-nitrosoguanidine (NTG) and ethylmethane sulfonate (EMS) using standard methods (Barbour, L., M. Hanna and W. Xiao. 2006. Mutagenesis, p. 121-127. In W. Xiao (ed.), Yeast Protocols, Second Edition. Humana Press, NJ). Cells were grown overnight in 10 ml of YPD at 30° C. with shaking. The overnight culture was centrifuged, and the pellet was resuspended in 50 mM potassium phosphate buffer, pH 7.0. The cells were again centrifuged and resuspended in 10 ml of the same buffer. A portion of the resuspended cells (2.5 ml) was transferred to a plastic 15 ml screw cap centrifuge tube, and the cells were treated with NTG (10 μg/ml final concentration) or EMS (3% w/v) for 40 minutes at 30° C. without shaking. The mutagen was inactivated by addition of an equal volume of filter sterilized 10% (w/v) sodium thiosulfate. The treated cells were centrifuged and resuspended in water two times. The treatment protocol involved repeated cycles of treating yeast cells with one of the mutagens (e.g., NTG), allowing the surviving cells to grow out overnight in YPD with 1% isobutanol, and then treating the overnight culture with the other mutagen (e.g., EMS). After the fifth cycle (i.e., a total of ten treatments with mutagen), cells were screened for isobutanol tolerance. PNY0602 was isolated after prolonged (24 h) exposure to 3.0% isobutanol. PNY0614 was isolated after 5 cycles of repeated freezing and thawing of the mutagenized culture by resuspending mutagenized cells in distilled water and transferring the cells to dry-ice ethanol bath and a 37° C. water bath for 20 minutes each.
(§2) Glucose consumption rates in the presence of isobutanol in YPD were also determined when the cell concentration was about 8 O.D. (about 3.9 gdcw/L). Saccharomyces cerevisiae strains PNY0571, PNY0602 and PNY0614 were plated from a freezer vial onto YPD agar (Teknova, Hollister, Calif.; Cat. #Y1000) and incubated overnight at 30° C. Cells from the YPD plate were inoculated into a 25 ml pre-culture of YPD broth (Teknova, Hollister, Calif.; Cat. #Y5000) with an initial OD600 of 0.06 to 0.08, and this culture was grown for 7 hours in an air shaker at 30° C. An aliquot of the pre-culture was inoculated into 200 ml of YPD broth with an initial OD600 of 0.06 to 0.08, and this culture was incubated with aeration at 30° C. for approximately 17 hours. The optical density of the culture was determined, the culture was centrifuged and the cells were resuspended in fresh YPD broth to yield an OD600 of 8. At this point, an aliquot of 10 ml of the culture was used for a dry cell weight determination, which gave dry cell weight in the range of 3.89 gdcw/L.
(§3) 20 ml cultures were transferred to flasks that contained 0.0%, 0.5%, 0.75%, 1.0%, 1.25%, 1.5%, 1.75%, 2.0% and 2.5% isobutanol. Time of addition of cells was referred to as 0 hours. At various times samples (500 to 700 ul) were transferred to a tube containing an equal volume of 10% TCA. Samples were centrifuged and glucose determined in the YSI glucose analyzer (YSI 2700 Select).

[3] = tested on: Saccharomyces cerevisiae PNY0571; test: as above; conditions: about 3.9 gdcw/L
Source text: as §1, §2, §3

[4] = tested on: Saccharomyces cerevisiae PNY0614; test: as above; conditions: about 3.9 gdcw/L
Source text: as §1, §2, §3

## CC(C)CO [Isobutanol, isobutanol]
[1]; 1.0% (w/v) alcohol, high cell density OD600 5
  Percent Survival HCD (%): 77.8%
[1]; 1.0% (w/v) alcohol, low cell density OD600 0.05
  Percent Survival LCD (%): 0.6%
[1]; 1.5% (w/v) alcohol, high cell density
  Percent Survival HCD (%): 45.1%
[1]; 1.5% (w/v) alcohol, low cell density
  Percent Survival LCD (%): 0.1%
[1]; 2.5% (w/v) alcohol, high cell density
  Percent Survival HCD (%): <0.001%
[1]; 2.5% (w/v) alcohol, low cell density
  Percent Survival LCD (%): <0.001%
[2]; PNY0602, 0.5% isobutanol
  Glucose consumed per gdcw per hour: 3.0 per gdcw per hour
[2]; PNY0602, 0.75% isobutanol
  Glucose consumed per gdcw per hour: 2.9 per gdcw per hour
[2]; PNY0602, 1% isobutanol
  Glucose consumed per gdcw per hour: 2.7 per gdcw per hour
[2]; PNY0602, 1.5% isobutanol
  Glucose consumed per gdcw per hour: 1.5 per gdcw per hour
[2]; PNY0602, 1.75% isobutanol
  Glucose consumed per gdcw per hour: 1.1 per gdcw per hour
[2]; PNY0602, 2% isobutanol
  Glucose consumed per gdcw per hour: 0.9 per gdcw per hour
[2]; PNY0602, 2.5% isobutanol
  Glucose consumed per gdcw per hour: 0.5 per gdcw per hour
[3]; PNY0571, 0.5% isobutanol
  Glucose consumed per gdcw per hour: 2.1 per gdcw per hour
[3]; PNY0571, 0.75% isobutanol
  Glucose consumed per gdcw per hour: 2.0 per gdcw per hour
[3]; PNY0571, 1% isobutanol
  Glucose consumed per gdcw per hour: 1.9 per gdcw per hour
[3]; PNY0571, 1.5% isobutanol
  Glucose consumed per gdcw per hour: 1.0 per gdcw per hour
[3]; PNY0571, 1.75% isobutanol
  Glucose consumed per gdcw per hour: 0.8 per gdcw per hour
[3]; PNY0571, 2% isobutanol
  Glucose consumed per gdcw per hour: 0.6 per gdcw per hour
[3]; PNY0571, 2.5% isobutanol
  Glucose consumed per gdcw per hour: 0.3 per gdcw per hour
[4]; PNY0614, 0.5% isobutanol
  Glucose consumed per gdcw per hour: 2.9 per gdcw per hour
[4]; PNY0614, 0.75% isobutanol
  Glucose consumed per gdcw per hour: 2.8 per gdcw per hour
[4]; PNY0614, 1% isobutanol
  Glucose consumed per gdcw per hour: 2.6 per gdcw per hour
[4]; PNY0614, 1.5% isobutanol
  Glucose consumed per gdcw per hour: 1.4 per gdcw per hour
[4]; PNY0614, 1.75% isobutanol
  Glucose consumed per gdcw per hour: 1.0 per gdcw per hour
[4]; PNY0614, 2% isobutanol
  Glucose consumed per gdcw per hour: 0.8 per gdcw per hour
[4]; PNY0614, 2.5% isobutanol
  Glucose consumed per gdcw per hour: 0.4 per gdcw per hour
